Counter-ions that a name gives are not always drawn.
How the values were obtained:
[1] = tested on: Raji cells; assay: cells; assay type: cell-based, human; details: 100 nM for 72 h
[2] = tested on: 13 cell lines representing a range of hematologic malignancies; assay: Cell viability in panel of hematologic malignancy derived cell lines; details: 100 nM, 72 hours
Experimental: Cell viability was determined after 72 hours by detecting luminescence. ALL, acute lymphoblastic leukemia; BL, Burkitt's lymphoma; DLBCL, diffuse large B-cell lymphoma; MCL, mantle cell lymphoma; AML, acute myeloid leukemia; MM, multiple myeloma; LCLs, lymphoblastoid cell lines.
(§2) 5000 cells as indicated were cultured in 96-well plate with 100 μl of media. On the next day, Brusatol or associated analogs were added once to the cells without media change. After treatment, the cells were incubated with 100 μl buffer for 10 minutes at room temperature following the instructions of CellTiter-Glo kit (Promega, Madison, Wis.). Luminescence was detected using a multi-mode reader Cytation 5 (BioTek, Winooski, Vt.). Brusatol or its analogs are dissolved in 100% ethanol and diluted in 1×PBS for treatment. Two independent experiments done in duplicates were performed.

[3] = plasma, 1 h
[4] = plasma, 1 h; remark: listed apart in the source
[5] = tested on: PDX223; assay: IC50 assays of biotin-conjugated compounds in multiple PDXs and lymphoma cells; details: Homo sapiens
Experimental: as §2

[6] = tested on: Jeko-1; assay: as above; details: Homo sapiens
Experimental: as §2

[7] = tested on: Pfeiffer; assay: as above; details: Homo sapiens
Experimental: as §2

[8] = tested on: Toledo; assay: as above; details: Homo sapiens
Experimental: as §2

[9] = tested on: PDX129; assay: as above; details: Homo sapiens
Experimental: as §2

[10] = biological target: T1, PI3Kγ (Homo sapiens, UniProt P48736); assay: Biotin pull-down / competitive binding assay in SU-DHL-4 cell lysates; details: SU-DHL-4 lysate, without parent Brusatol
T1 construct: endogenous in cells; host or cells: SU-DHL-4 cells (lysate)
T1 sequence (P48736 whole entry): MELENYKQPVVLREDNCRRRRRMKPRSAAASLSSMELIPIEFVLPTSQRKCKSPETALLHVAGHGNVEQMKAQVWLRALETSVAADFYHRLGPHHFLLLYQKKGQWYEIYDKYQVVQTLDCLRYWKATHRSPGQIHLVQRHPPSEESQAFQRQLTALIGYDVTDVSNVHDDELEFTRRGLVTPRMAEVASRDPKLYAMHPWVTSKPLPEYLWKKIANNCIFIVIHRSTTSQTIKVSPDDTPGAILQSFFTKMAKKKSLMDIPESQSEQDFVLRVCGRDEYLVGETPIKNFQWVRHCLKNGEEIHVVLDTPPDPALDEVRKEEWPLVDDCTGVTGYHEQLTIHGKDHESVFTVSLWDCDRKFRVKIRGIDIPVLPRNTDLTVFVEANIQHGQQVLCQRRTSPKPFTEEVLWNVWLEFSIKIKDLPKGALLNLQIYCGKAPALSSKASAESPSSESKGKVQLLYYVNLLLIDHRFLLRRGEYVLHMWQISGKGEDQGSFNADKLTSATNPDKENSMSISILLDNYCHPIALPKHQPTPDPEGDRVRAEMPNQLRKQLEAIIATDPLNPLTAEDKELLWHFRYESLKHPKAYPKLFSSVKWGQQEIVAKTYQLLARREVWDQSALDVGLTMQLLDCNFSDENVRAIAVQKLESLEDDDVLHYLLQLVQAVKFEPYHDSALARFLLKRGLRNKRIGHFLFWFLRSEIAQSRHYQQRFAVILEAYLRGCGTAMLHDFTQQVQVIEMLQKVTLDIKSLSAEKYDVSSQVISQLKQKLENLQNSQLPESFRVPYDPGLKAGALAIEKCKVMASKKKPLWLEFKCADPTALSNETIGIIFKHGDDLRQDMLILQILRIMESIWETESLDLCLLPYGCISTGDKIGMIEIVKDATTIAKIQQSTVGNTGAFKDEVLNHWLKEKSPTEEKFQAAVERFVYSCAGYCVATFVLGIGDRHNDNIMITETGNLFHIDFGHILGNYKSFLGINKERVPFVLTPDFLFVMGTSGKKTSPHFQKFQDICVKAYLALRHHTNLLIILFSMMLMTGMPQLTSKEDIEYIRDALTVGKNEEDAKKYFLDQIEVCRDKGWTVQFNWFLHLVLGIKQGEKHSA
Experimental: (§1) 30 μg of purified GST-tagged proteins were pre-cleared with Dynabeads M-280 Streptavidin (Invitrogen, Carlsbad, Calif., USA). The supernatants were collected and incubated with Dynabeads M-280 Streptavidin and 0, 300 μM, or 500 μM of biotin-conjugated Brusatol derivatives (51052) overnight at 4° C. For the competitive binding assays, cell lysates from SU-DHL-4 cells were incubated with the biotin-conjugated Brusatol derivative (51048) alone or together with Brusatol as well as Dynabeads M-280 Streptavidin. The complexes were harvested and washed with PBS. The collected beads were mixed with SDS loading buffer for further analysis.

[11] = biological target: GST-tagged PI3Kγ (Homo sapiens, UniProt P48736); assay: Pull-down assay with purified GST-tagged protein; assay type: binding; details: 0, 300 μM, or 500 μM
GST-tagged PI3Kγ, sequence (P48736 whole entry): as above
Experimental: PIK3CG cDNA (Plasmid #20574) was purchased from Addgene and cloned into a pGEX-6P-1 vector (GE Healthcare, Madison, Wis., USA). This GST-tagged PIK3CG plasmid was transformed into E. coli BL21 (DE3)-competent cells (Life Technologies, Carlsbad, Calif., USA) for in vitro expression according to Molecular Cloning (Third Edition).
as §1

Question: Which “activity on viability of Raji cells (in words)” value (from here on “activity on viability”) [1] does the source give for COC(=O)[C@@]12OC[C@]34C([C@@H](O)[C@@H]1O)[C@@]1(C)CC(=O)C(OC(=O)C5CCCN5C(=O)OC(C)(C)C)=C(C)[C@@H]1C[C@H]3OC(=O)[C@H](OC(=O)C=C(C)C)[C@@H]24 (stereo partly drawn) [Compound 11, 1-(tert-butyl) 2-((1R,2S,3S,3aS,3a1R,4R,6aR,7aR,11aS)-1,2-dihydroxy-3-(methoxycarbonyl)-8,11a-dimethyl-4-((3-methylbut-2-enoyl)oxy)-5,10-dioxo-1,3,3a,4,5,6a,7,7a,10,11,11a,11b-dodecahydro-2H-3,3a1-(epoxymethano)dibenzo[de,g]chromen-9-yl)(2S)-pyrrolidine-1,2-dicarboxylate] here?
Answer: The value was “moderate inhibition”.

Question: With COC(=O)[C@@]12OC[C@]34C([C@@H](O)[C@@H]1O)[C@@]1(C)CC(=O)C(OC(=O)[C@@H](N)Cc5ccccc5)=C(C)[C@@H]1C[C@H]3OC(=O)[C@H](OC(=O)C=C(C)C)[C@@H]24 (stereo partly drawn) [Compound 14, methyl (1R,2S,3S,3aS,3a1R,4R,6aR,7aR,11aS)-9-((L-phenylalanyl)oxy)-1,2-dihydroxy-8,11a-dimethyl-4-((3-methylbut-2-enoyl)oxy)-5,10-dioxo-1,4,5,6a,7,7a,10,11,11a,11b-decahydro-2H-3,3a1-(epoxymethano)dibenzo[de,g]chromene-3(3aH)-carboxylate] as the compound, how does the “inhibition of cell viability (in words)” value [2] read?
Answer: The value was “significantly inhibit cell viability”.

Question: For COC(=O)[C@@]12OC[C@]34C([C@@H](O)[C@@H]1O)[C@@]1(C)CC(=O)C(OC(=O)CNC(=O)CN)=C(C)[C@@H]1C[C@H]3OC(=O)[C@H](OC(=O)C=C(C)C)[C@@H]24 (stereo partly drawn) [Compound 20, methyl (1R,2S,3S,3aS,3a1R,4R,6aR,7aR,11aS)-9-((glycylglycyl)oxy)-1,2-dihydroxy-8,11a-dimethyl-4-((3-methylbut-2-enoyl)oxy)-5,10-dioxo-1,4,5,6a,7,7a,10,11,11a,11b-decahydro-2H-3,3a1-(epoxymethano)dibenzo[de,g]chromene-3(3aH)-carboxylate], which “activity on viability” value [1] is on record?
Answer: Its value is “potent activities comparable to or higher than the parent brusatol”.

Question: With COC(=O)[C@@]12OC[C@]34C([C@@H](O)[C@@H]1O)[C@@]1(C)CC(=O)C(OC(=O)C[C@H](C)NC(=O)C[C@H](C)N)=C(C)[C@@H]1C[C@H]3OC(=O)[C@H](OC(=O)C=C(C)C)[C@@H]24 (stereo partly drawn) [Compound 21, methyl (1R,2S,3S,3aS,3a1R,4R,6aR,7aR,11aS)-9-(((S)-3-((S)-3-aminobutanamido)butanoyl)oxy)-1,2-dihydroxy-8,11a-dimethyl-4-((3-methylbut-2-enoyl)oxy)-5,10-dioxo-1,4,5,6a,7,7a,10,11,11a,11b-decahydro-2H-3,3a1-(epoxymethano)dibenzo[de,g]chromene-3(3aH)-carboxylate] as the compound, how does the “activity on viability” value [1] read?
Answer: Its value is “potent activities comparable to or higher than the parent brusatol”.

Question: With COC(=O)[C@@]12OC[C@]34C([C@@H](O)[C@@H]1O)[C@@]1(C)CC(=O)C(OC(=O)[C@H](C)NC(=O)[C@H](C)N)=C(C)[C@@H]1C[C@H]3OC(=O)[C@H](OC(=O)C=C(C)C)[C@@H]24 (stereo partly drawn) [Compound 22, methyl (1R,2S,3S,3aS,3a1R,4R,6aR,7aR,11aS)-9-((L-alanyl-L-alanyl)oxy)-1,2-dihydroxy-8,11a-dimethyl-4-((3-methylbut-2-enoyl)oxy)-5,10-dioxo-1,4,5,6a,7,7a,10,11,11a,11b-decahydro-2H-3,3a1-(epoxymethano)dibenzo[de,g]chromene-3(3aH)-carboxylate] as the compound, how does the “activity on viability” value [1] read?
Answer: Its value is “not active”.

Question: For COC(=O)[C@@]12OC[C@]34C([C@@H](O)[C@@H]1O)[C@@]1(C)CC(=O)C(OC(=O)CNC(=O)CNC(=O)CN)=C(C)[C@@H]1C[C@H]3OC(=O)[C@H](OC(=O)C=C(C)C)[C@@H]24 (stereo partly drawn) [Compound 23, methyl (1R,2S,3S,3aS,3a1R,4R,6aR,7aR,11aS)-9-((glycylglycylglycyl)oxy)-1,2-dihydroxy-8,11a-dimethyl-4-((3-methylbut-2-enoyl)oxy)-5,10-dioxo-1,4,5,6a,7,7a,10,11,11a,11b-decahydro-2H-3,3a1-(epoxymethano)dibenzo[de,g]chromene-3(3aH)-carboxylate], which “activity on viability” value [1] is on record?
Answer: Its value is “potent activities comparable to or higher than the parent brusatol”.

Question: Which results are given for COC(=O)[C@@]12OC[C@]34C([C@@H](O)[C@@H]1O)[C@@]1(C)CC(=O)C(OC(=O)C[C@H](C)N)=C(C)[C@@H]1C[C@H]3OC(=O)[C@H](OC(=O)C=C(C)C)[C@@H]24 (stereo partly drawn) [Compound 26-TFA]?
Answer: Plasma stability remaining % at 60 min, human [3]: 44%; Plasma stability remaining % at 60 min, rat [4]: 39%

Question: For COC(=O)[C@@]12OC[C@]34C([C@@H](O)[C@@H]1O)[C@@]1(C)CC(=O)C(OC(=O)[C@@H]5CCCN5)=C(C)[C@@H]1C[C@H]3OC(=O)[C@H](OC(=O)C=C(C)C)[C@@H]24 (stereo partly drawn) [Compound 31, (1R,2S,3S,3aS,3a1R,4R,6aR,7aR,11aS)-1,2-dihydroxy-3-(methoxycarbonyl)-8,11a-dimethyl-4-((3-methylbut-2-enoyl)oxy)-5,10-dioxo-1,3,3a,4,5,6a,7,7a,10,11,11a,11b-dodecahydro-2H-3,3a1-(epoxymethano)dibenzo[de,g]chromen-9-yl L-prolinate], which “inhibition of cell viability (in words)” value [2] is on record?
Answer: The value was “significantly inhibit cell viability”.

Question: What about the “activity on viability” value [1] of the same compound?
Answer: Its value is “potent activities comparable to or higher than the parent brusatol”.

Question: With CC(C)=CC(=O)O[C@H]1C(=O)O[C@@H]2C[C@H]3C(C)=C(O)C(=O)C[C@]3(C)C3[C@@H](O)[C@H](O)[C@@]4(C(=O)NCCCCCCNC(=O)CCC[C@@H]5SC[C@@H]6NC(=O)N[C@@H]65)OC[C@]32[C@@H]14 (stereo partly drawn) [Compound 51046, (1R,2S,3S,3aS,3a1R,4R,6aR,7aR,11aS)-1,2,9-trihydroxy-8,11a-dimethyl-5,10-dioxo-3-((6-(4-((3aS,4S,6aR)-2-oxohexahydro-1H-thieno[3,4-d]imidazol-4-yl)butanamido)hexyl)carbamoyl)-1,3,3a,4,5,6a,7,7a,10,11,11a,11b-dodecahydro-2H-3,3a1-(epoxymethano)dibenzo[de,g]chromen-4-yl 3-methylbut-2-enoate] as the compound, how does the IC50 [5] read?
Answer: The IC50 was 8970 nM.

Question: And the IC50 [6]?
Answer: The IC50 was 3010 nM.

Question: What about the IC50 [7] of the same compound?
Answer: Its IC50 is 8910 nM.

Question: What about the IC50 [8] of the same compound?
Answer: Its IC50 is 494 nM.

Question: What about the IC50 [9] of the same compound?
Answer: Its IC50 is 1640 nM.

Question: Which IC50 [5] does the source give for COC(=O)[C@@]12OC[C@]34C([C@@H](O)[C@@H]1O)[C@@]1(C)CC(=O)C(OC(=O)CCCC[C@@H]5SC[C@@H]6NC(=O)N[C@@H]65)=C(C)[C@@H]1C[C@H]3OC(=O)[C@H](OC(=O)C=C(C)C)[C@@H]24 (stereo partly drawn) [Compound 51048, methyl (1R,2S,3S,3aS,3a1R,4R,6aR,7aR,11aS)-1,2-dihydroxy-8,11a-dimethyl-4-((3-methylbut-2-enoyl)oxy)-5,10-dioxo-9-((5-((3aS,4S,6aR)-2-oxohexahydro-1H-thieno[3,4-d]imidazol-4-yl)pentanoyl)oxy)-1,4,5,6a,7,7a,10,11,11a,11b-decahydro-2H-3,3a1-(epoxymethano)dibenzo[de,g]chromene-3(3aH)-carboxylate] here?
Answer: Its IC50 is 3560 nM.

Question: And the IC50 [6]?
Answer: Its IC50 is 1190 nM.

Question: What about the IC50 [7] of the same compound?
Answer: Its IC50 is 3170 nM.

Question: And the IC50 [8]?
Answer: Its IC50 is over 10000 nM.

Question: And the IC50 [9]?
Answer: The IC50 was 1730 nM.

Question: And the “binding activity with PI3Kγ (in words)” value [10]?
Answer: Its value is “relatively strong”.

Question: With COC(=O)[C@@]12OC[C@]34C([C@@H](O)[C@@H]1O)[C@@]1(C)CC(=O)C(OC(=O)CCCCCNC(=O)CCCC[C@@H]5SC[C@@H]6NC(=O)N[C@@H]65)=C(C)[C@@H]1C[C@H]3OC(=O)[C@H](OC(=O)C=C(C)C)[C@@H]24 (stereo partly drawn) [Compound 51052, methyl (1R,2S,3S,3aS,3a1R,4R,6aR,7aR,11aS)-1,2-dihydroxy-8,11a-dimethyl-4-((3-methylbut-2-enoyl)oxy)-5,10-dioxo-9-((6-(5-((3aS,4S,6aR)-2-oxohexahydro-1H-thieno[3,4-d]imidazol-4-yl)pentanamido)hexanoyl)oxy)-1,4,5,6a,7,7a,10,11,11a,11b-decahydro-2H-3,3a1-(epoxymethano)dibenzo[de,g]chromene-3(3aH)-carboxylate] as the compound, how does the IC50 [5] read?
Answer: Its IC50 is 108 nM.

Question: What about the IC50 [6] of the same compound?
Answer: The IC50 was 28 nM.

Question: And the IC50 [7]?
Answer: The IC50 was 79 nM.

Question: And the “association with GST-tagged PI3Kγ in vitro (in words)” value [11]?
Answer: Its value is “formed a complex”.

Question: What about the IC50 [8] of the same compound?
Answer: Its IC50 is 388 nM.

Question: And the IC50 [9]?
Answer: The IC50 was 76 nM.
